Measured values as given in patent US9670214B2, “Small molecule myristate inhibitors of Bcr-abl and methods of use” (DANA-FARBER CANCER INSTITUTE, INC., priority 2007, dated 2017).

Experiments:
[1] = system: Ba/F3 cells (IL-3 dependent murine pro-B cell line); assay: Proliferation assay (MTT), parental Ba/F3 cells; format: cell-based; settings: Mus musculus, 48 h, drug concentrations 0.005-10 μM, read-out: BaF3
Method: Interleukin-3 (IL-3) dependent murine pro-B cell line, Ba/F3, and murine myeloid precursor cell line, 32D, were maintained in RPMI-1640 medium supplemented with L-Glutamine, 10% FBS and 10 U/ml recombinant murine IL-3 (Roche). Mo7e human megakarioblastic cell line was grown in RPMI-1640 medium supplemented with L-Glutamine, 20% FBS and 5 ng/ml recombinant human granulocyte macrophage cell stimulating factor (GM-CSF) (R&D Systems) or 200 ng/ml stem cell factor (SCF) (Biosource).
(§1) Cells (0.3-0.6×10^6/ml) were plated in duplicate or triplicate in 96-well plates containing increasing drug concentrations (0.005-10 μM). After incubation at 37° C. in 5% CO2 for 48 h, the effect of the compounds on cell viability was determined by MTT (Promega) colorimetric dye reduction method. Inhibition of cell proliferation was calculated as a percentage of growth of DMSO treated cells, and IC50 values were determined with Microsoft Excel XLfit3.

[2] = biological target: Bcr-abl T315I (Ba/F3.p210^T315I cells) (Homo sapiens, UniProt P00519, T315I, cells depend on it); assay: Proliferation assay (MTT), T315I mutant Bcr-abl expressing Ba/F3 cells; format: cell-based, murine; settings: 48 h, drug concentrations 0.005-10 μM
Description: Wild type Bcr-abl expressing 32D (32D.p210) and Ba/F3 (Ba/F3.p210) cells, and mutant Bcr-abl expressing cell lines Ba/F3.p210^G250E, Ba/F3.p210^E255V, Ba/F3.p210^T315I, Ba/F3.p210^F317L and Ba/F3.p210^M351T, as well as Ba/F3 cells transformed with Flt-3-ITD kinase. Additional assays included Ba/F3 cells expressing the fusion protein kinases TEL-PDGFRβ, TEL-JAK1, NPM-ALK, TEL-cKit, Tel-Bmx, Tel-FGR3, Tel-Lck and Ba/F3.TPR-met cells. All the above cell lines were maintained in RPMI-1640 medium with L-Glutamine, 10% FBS and 1 mg/ml geneticin (Gibco).
as §1

IC50 [2] | Structure (SMILES) | IC50 [1]
> 10 µM | Cc1ccc(S(=O)(=O)Nc2ccc(-c3ncnc(Nc4ccc(OC(F)(F)F)cc4)c3C)cc2)cc1 | > 10 µM
> 10 µM | COc1ccc(C(=O)Nc2ccc(-c3cc(Nc4ccc(OC(F)(F)F)cc4)ncn3)cc2)cc1 | 9.22 µM
> 10 µM | Cc1ccc(NC(=O)c2ccccc2)cc1Nc1nccn1-c1cc(Nc2ccc(OC(F)(F)F)cc2)ncn1 | > 10 µM
> 10 µM | O=[N+]([O-])c1cccc(-c2cc(Nc3ccc(OC(F)(F)F)cc3)ncn2)c1 | > 10 µM
> 10 µM | Cc1ccc(S(=O)(=O)Nc2ccc(-c3cc(Nc4ccc(OC(F)(F)F)cc4)ncn3)cc2)cc1 | > 10 µM
> 10 µM | Cc1c(Nc2ccc(OC(F)(F)F)cc2)ncnc1-c1cccc(C(N)=O)c1 | > 10 µM
> 10 µM | CN(C)C1CCN(Cc2cc3c(Nc4ccc(OC(F)(F)F)cc4)ncnc3s2)C1 (stereo not drawn) | > 10 µM
> 10 µM | O=c1cc(-c2cc(Nc3ccc(OC(F)(F)F)cc3)ncn2)cc[nH]1 | > 10 µM
> 10 µM | FC(F)(F)Oc1ccc(Nc2ncnc3sccc23)cc1 | > 10 µM
> 10 µM | CN(C)C1CCN(C(=O)c2cc3c(Nc4ccc(OC(F)(F)F)cc4)ncnc3s2)C1 (stereo not drawn) | > 10 µM
> 10 µM | Cc1c(Nc2ccc(OC(F)(F)F)cc2)ncnc1-c1cccc(C(=O)O)c1 | > 10 µM
> 10 µM | Cc1cc2c(Nc3ccc(OC(F)(F)F)cc3)ncnc2s1 | > 10 µM
> 10 µM | O=C(c1cc2c(Nc3ccc(OC(F)(F)F)cc3)ncnc2s1)N1CCC(O)CC1 | > 10 µM
> 10 µM | COC(=O)c1cc2c(Nc3ccc(OC(F)(F)F)cc3)ncnc2s1 | > 10 µM
> 10 µM | Cc1nn(C)c(C)c1-c1cc(Nc2ccc(OC(F)(F)F)cc2)ncn1 [N-(4-(trifluoromethoxy)phenyl)-6-(1,3,5-trimethyl-1H-pyrazol-4-yl)pyrimidin-4-amine] | > 10 µM
> 10 µM | O=C(NCCO)c1cc2c(Nc3ccc(OC(F)(F)F)cc3)ncnc2s1 [N-(2-hydroxyethyl)-4-(4-(trifluoromethoxy)phenylamino)thieno[2,3-d]pyrimidine-6-carboxamide] | > 10 µM
> 10 µM | FC(F)(F)Oc1ccc(Nc2cc(-n3ccc4cccnc43)ncn2)cc1 | > 10 µM
> 10 µM | Cc1c(Nc2ccc(OC(F)(F)F)cc2)ncnc1-c1cccc2[nH]ccc12 | > 10 µM
> 10 µM | CCNC(=O)c1cc2c(Nc3ccc(OC(F)(F)F)cc3)ncnc2s1 | > 10 µM
> 10 µM | O=C(NCCN1CCOCC1)c1cc2c(Nc3ccc(OC(F)(F)F)cc3)ncnc2s1 [drawing 332] | –
– | OCCn1ncc2c(Nc3ccc(OC(F)(F)F)cc3)ncnc21 [2-(4-(4-(trifluoromethoxy)phenylamino)-1H-pyrazolo[3,4-d]pyrimidin-1-yl)ethanol] | > 10 µM

IC50 [2] | Structure (SMILES) | IC50 [1]
– | FC(F)(F)Oc1ccc(Nc2ncnc3nn(Cc4cccc(Br)c4)cc23)cc1 | > 10 µM
– | CCc1ccccc1-n1cc2c(Nc3ccc(OC(F)(F)F)cc3)ncnc2n1 | > 10 µM
– | O=C(c1ccc2c(Nc3ccc(OC(F)(F)F)cc3)ncnc2c1)N1CCCC(CO)C1 (stereo not drawn) | > 10 µM
– | Cc1c(Nc2ccc(OC(F)(F)F)cc2)ncnc1-c1ccc(S(N)(=O)=O)cc1 | > 10 µM
– | FC(F)(F)Oc1ccc(Nc2ncnc3[nH]ncc23)cc1 | > 10 µM
– | FC(F)(F)Oc1ccc(Nc2cc(Nc3nccn3-c3cccc(C(F)(F)F)c3)ncn2)cc1 | 2.56 µM
– | CCOC(=O)C1CCCN(C(=O)c2cc3c(Nc4ccc(OC(F)(F)F)cc4)ncnc3n2C)C1 (stereo not drawn) | > 10 µM
– | Cn1c(C(=O)N2CCC(Br)CC2)cc2c(Nc3ccc(OC(F)(F)F)cc3)ncnc21 | > 10 µM
– | Cn1c(C(=O)N2CCC3(CC2)C(=O)NCN3c2ccccc2)cc2c(Nc3ccc(OC(F)(F)F)cc3)ncnc21 | > 10 µM
– | CC(C)S(=O)(=O)Nc1ccc(-c2cc(Nc3ccc(OC(F)(F)F)cc3)ncn2)cc1 | 6.93 µM
– | OCCn1ccc2c(Nc3ccc(OC(F)(F)F)cc3)ncnc21 | > 10 µM
– | CCc1ccccc1-n1ncc2c(Nc3ccc(OC(F)(F)F)cc3)ncnc21 | > 10 µM
– | FC(F)(F)Cn1cc2c(Nc3ccc(OC(F)(F)F)cc3)ncnc2n1 | 8 µM
– | OC[C@H]1OC(n2cnc3c(Nc4ccc(OC(F)(F)F)cc4)ncnc32)[C@H](O)[C@@H]1O (stereo partly drawn) | > 10 µM
– | FC(F)(F)Oc1ccc(Nc2ncnc3nn(Cc4ccccc4)cc23)cc1 | > 10 µM
– | FC(F)(F)Oc1ccc(Nc2cc(-c3cnn(Cc4cccnc4)c3)ncn2)cc1 | > 10 µM
– | FC(F)(F)Oc1ccc(Nc2ncnc3nn(CC4CCOC4)cc23)cc1 (stereo not drawn) | > 10 µM
– | O=Cc1cnc2c(ccn2CCN2CCOCC2)c1Nc1ccc(OC(F)(F)F)cc1Br | > 10 µM
– | Fc1cc(Cn2cc3c(Nc4ccc(OC(F)(F)F)cc4)ncnc3n2)ccc1C(F)(F)F | 4.6 µM
– | FC(F)(F)Oc1ccc(Nc2ncnc3nn(-c4ccc(Cl)cc4Cl)cc23)cc1 | > 10 µM
– | Cn1cc(-c2cc(Nc3ccc(OC(F)(F)F)cc3)ncn2)cn1 | > 10 µM

IC50 [2] | Structure (SMILES) | IC50 [1]
– | CCCCS(=O)(=O)Nc1ccc(-c2cc(Nc3ccc(OC(F)(F)F)cc3)ncn2)cc1 | 8.92 µM
– | CCOC(=O)Cc1cnc(NC(=O)c2ccc3c(Nc4ccc(OC(F)(F)F)cc4)ncnc3c2)s1 | > 10 µM
– | COCCCNC(=O)c1ccc(-c2ncnc(Nc3ccc(OC(F)(F)F)cc3)c2C)cc1 | 3.11 µM
– | FC(F)(F)Oc1ccc(Nc2ncnc3c2ncn3CCN2CCOCC2)cc1 | > 10 µM
– | CCCCn1ncc2c(Nc3ccc(OC(F)(F)F)cc3)ncnc21 | 6.6 µM
– | CCn1cc2c(Nc3ccc(OC(F)(F)F)cc3)ncnc2n1 | > 10 µM
– | Oc1cccc(Cn2cc3c(Nc4ccc(OC(F)(F)F)cc4)ncnc3n2)c1 | 6.9 µM
– | CCS(=O)(=O)Nc1ccc(-c2cc(Nc3ccc(OC(F)(F)F)cc3)ncn2)cc1 | 8.31 µM
– | OCCn1cc2c(Nc3ccc(OC(F)(F)F)cc3)ncnc2n1 [2-(4-(4-(trifluoromethoxy)phenylamino)-2H-pyrazolo[3,4-d]pyrimidin-2-yl)ethanol] | > 10 µM
– | COCCCNC(=O)CCn1ccc2c(Nc3ccc(OC(F)(F)F)cc3)ncnc21 | > 10 µM
– | FC(F)(F)Oc1ccc(Nc2cc(Nc3cc(C4CC4)[nH]n3)ncn2)cc1 | 5.62 µM
– | FC(F)(F)Oc1ccc(Nc2cc(-c3cc(NCCN4CCOCC4)ncn3)ncn2)cc1 | > 10 µM
– | FC(F)(F)Oc1ccc(Nc2ncnc3c2cnn3Cc2ccccn2)cc1 | > 10 µM
– | OCc1cc2c(Nc3ccc(OC(F)(F)F)cc3)ncnc2s1 | > 10 µM
– | FC(F)(F)Oc1ccc(Nc2ncnc3nn(Cc4cccnc4)cc23)cc1 | 2.1 µM
– | NC(=O)Cn1ncc2c(Nc3ccc(OC(F)(F)F)cc3)ncnc21 | > 10 µM
– | CCn1ncc2c(Nc3ccc(OC(F)(F)F)cc3)ncnc21 | > 10 µM
– | CCNC(=O)c1cc2c(Nc3ccc(OC(F)(F)F)cc3)ncnc2n1C | 5.37 µM
– | Fc1ccccc1-n1cc2c(Nc3ccc(OC(F)(F)F)cc3)ncnc2n1 | > 10 µM
– | FC(F)(F)Oc1ccc(Nc2ncnc3c2cnn3-c2ccc(Cl)cc2Cl)cc1 | > 10 µM
– | COC1CCN(C(=O)c2cc3c(Nc4ccc(OC(F)(F)F)cc4)ncnc3s2)CC1 | > 10 µM

Structure (SMILES) | IC50 [2] | IC50 [1]
O=C(c1cc2c(Nc3ccc(OC(F)(F)F)cc3)ncnc2s1)N1CCN(c2cccc(C(F)(F)F)c2)CC1 | 1.92 µM | 4.55 µM
O=Cc1cc(-c2cc(Nc3ccc(OC(F)(F)F)cc3)ncn2)ccc1F | 5.84 µM | 4.12 µM
CCS(=O)(=O)n1cc(-c2cc(Nc3ccc(OC(F)(F)F)cc3)ncn2)cn1 | 4.25 µM | > 10 µM
Cc1c(-c2cc(Nc3ccc(OC(F)(F)F)cc3)ncn2)cnn1-c1ccccc1 | 6.23 µM | > 10 µM
CN1CCN(c2cc(-c3cc(Nc4ccc(OC(F)(F)F)cc4)ncn3)ccn2)CC1 | 0.386 µM | 0.71 µM
FC(F)(F)Oc1ccc(Nc2cc(-c3cccc4c3oc3ccccc34)ncn2)cc1 | 4.6 µM | > 10 µM
CS(=O)(=O)Nc1ccc(-c2cc(Nc3ccc(OC(F)(F)F)cc3)ncn2)cc1 | 0.6 µM | 2.21 µM
FC(F)(F)Oc1ccc(Nc2cc(-c3cccc4[nH]ccc34)ncn2)cc1 | 6.67 µM | > 10 µM
CC(C)Cn1cc(-c2cc(Nc3ccc(OC(F)(F)F)cc3)ncn2)cn1 | 1.55 µM | > 10 µM
O=S(=O)(NCCO)c1ccc(-c2cc(Nc3ccc(OC(F)(F)F)cc3)ncn2)cc1 | 1.45 µM | > 10 µM
NS(=O)(=O)c1ccc(-c2cc(Nc3ccc(OC(F)(F)F)cc3)ncn2)cc1 | 1.05 µM | > 10 µM
FC(F)(F)Oc1ccc(Nc2cc(-c3ccc4[nH]ccc4c3)ncn2)cc1 | 8.71 µM | > 10 µM
FC(F)(F)Oc1ccc(Nc2cc(-c3ccc(-c4ccccc4)cc3)ncn2)cc1 | 3.18 µM | > 10 µM
